Active and inactive are the calls of the source.
Key:
[1] = target: Voltage-gated N-type calcium channel alpha-1B subunit/Amyloid beta A4 precursor protein-binding family A member 1 (Homo sapiens, UniProt Q00975+Q02410); type: protein assay
[2] = target: T1, Tyrosine-protein phosphatase non-receptor type 7 (Homo sapiens, UniProt P35236); test: inhibition of hematopoietic tyrosine phosphatase HePTP – biochemical, set 2, SAR follow-up (AID 449736); type: functional
T1 sequence (P35236 whole entry): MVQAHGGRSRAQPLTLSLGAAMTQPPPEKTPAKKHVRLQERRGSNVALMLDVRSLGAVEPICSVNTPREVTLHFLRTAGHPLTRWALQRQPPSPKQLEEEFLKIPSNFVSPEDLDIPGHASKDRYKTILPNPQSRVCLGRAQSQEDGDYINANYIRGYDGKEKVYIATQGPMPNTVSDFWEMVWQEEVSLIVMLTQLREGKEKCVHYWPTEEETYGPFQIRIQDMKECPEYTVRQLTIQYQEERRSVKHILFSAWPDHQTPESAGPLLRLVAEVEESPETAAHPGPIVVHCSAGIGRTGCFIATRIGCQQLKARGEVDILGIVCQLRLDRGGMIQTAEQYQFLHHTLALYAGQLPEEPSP

H4 = test: Luminescence Cell-Based Dose Response HTS to Identify Activators of 5'UTR Stem-Loop Driven Prion Protein mRNA Translation in H4 Neuroglioblastoma Cells. [Related pubchem assays: 1829 (Project Summary), 1814 (Primary HTS)]; type: functional; conditions: Homo sapiens
[3] = NIH3T3 cell viability loss – ATP luminescence, mouse fibroblasts, counter-screen, dose response (AID 2010); type: functional, cell-based;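 also: cells exposed to compound for about 90 hours before reading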

Chain of Voltage-gated N-type calcium channel alpha-1B subunit/Amyloid beta A4 precursor protein-binding family A member 1 (Q00975 whole entry): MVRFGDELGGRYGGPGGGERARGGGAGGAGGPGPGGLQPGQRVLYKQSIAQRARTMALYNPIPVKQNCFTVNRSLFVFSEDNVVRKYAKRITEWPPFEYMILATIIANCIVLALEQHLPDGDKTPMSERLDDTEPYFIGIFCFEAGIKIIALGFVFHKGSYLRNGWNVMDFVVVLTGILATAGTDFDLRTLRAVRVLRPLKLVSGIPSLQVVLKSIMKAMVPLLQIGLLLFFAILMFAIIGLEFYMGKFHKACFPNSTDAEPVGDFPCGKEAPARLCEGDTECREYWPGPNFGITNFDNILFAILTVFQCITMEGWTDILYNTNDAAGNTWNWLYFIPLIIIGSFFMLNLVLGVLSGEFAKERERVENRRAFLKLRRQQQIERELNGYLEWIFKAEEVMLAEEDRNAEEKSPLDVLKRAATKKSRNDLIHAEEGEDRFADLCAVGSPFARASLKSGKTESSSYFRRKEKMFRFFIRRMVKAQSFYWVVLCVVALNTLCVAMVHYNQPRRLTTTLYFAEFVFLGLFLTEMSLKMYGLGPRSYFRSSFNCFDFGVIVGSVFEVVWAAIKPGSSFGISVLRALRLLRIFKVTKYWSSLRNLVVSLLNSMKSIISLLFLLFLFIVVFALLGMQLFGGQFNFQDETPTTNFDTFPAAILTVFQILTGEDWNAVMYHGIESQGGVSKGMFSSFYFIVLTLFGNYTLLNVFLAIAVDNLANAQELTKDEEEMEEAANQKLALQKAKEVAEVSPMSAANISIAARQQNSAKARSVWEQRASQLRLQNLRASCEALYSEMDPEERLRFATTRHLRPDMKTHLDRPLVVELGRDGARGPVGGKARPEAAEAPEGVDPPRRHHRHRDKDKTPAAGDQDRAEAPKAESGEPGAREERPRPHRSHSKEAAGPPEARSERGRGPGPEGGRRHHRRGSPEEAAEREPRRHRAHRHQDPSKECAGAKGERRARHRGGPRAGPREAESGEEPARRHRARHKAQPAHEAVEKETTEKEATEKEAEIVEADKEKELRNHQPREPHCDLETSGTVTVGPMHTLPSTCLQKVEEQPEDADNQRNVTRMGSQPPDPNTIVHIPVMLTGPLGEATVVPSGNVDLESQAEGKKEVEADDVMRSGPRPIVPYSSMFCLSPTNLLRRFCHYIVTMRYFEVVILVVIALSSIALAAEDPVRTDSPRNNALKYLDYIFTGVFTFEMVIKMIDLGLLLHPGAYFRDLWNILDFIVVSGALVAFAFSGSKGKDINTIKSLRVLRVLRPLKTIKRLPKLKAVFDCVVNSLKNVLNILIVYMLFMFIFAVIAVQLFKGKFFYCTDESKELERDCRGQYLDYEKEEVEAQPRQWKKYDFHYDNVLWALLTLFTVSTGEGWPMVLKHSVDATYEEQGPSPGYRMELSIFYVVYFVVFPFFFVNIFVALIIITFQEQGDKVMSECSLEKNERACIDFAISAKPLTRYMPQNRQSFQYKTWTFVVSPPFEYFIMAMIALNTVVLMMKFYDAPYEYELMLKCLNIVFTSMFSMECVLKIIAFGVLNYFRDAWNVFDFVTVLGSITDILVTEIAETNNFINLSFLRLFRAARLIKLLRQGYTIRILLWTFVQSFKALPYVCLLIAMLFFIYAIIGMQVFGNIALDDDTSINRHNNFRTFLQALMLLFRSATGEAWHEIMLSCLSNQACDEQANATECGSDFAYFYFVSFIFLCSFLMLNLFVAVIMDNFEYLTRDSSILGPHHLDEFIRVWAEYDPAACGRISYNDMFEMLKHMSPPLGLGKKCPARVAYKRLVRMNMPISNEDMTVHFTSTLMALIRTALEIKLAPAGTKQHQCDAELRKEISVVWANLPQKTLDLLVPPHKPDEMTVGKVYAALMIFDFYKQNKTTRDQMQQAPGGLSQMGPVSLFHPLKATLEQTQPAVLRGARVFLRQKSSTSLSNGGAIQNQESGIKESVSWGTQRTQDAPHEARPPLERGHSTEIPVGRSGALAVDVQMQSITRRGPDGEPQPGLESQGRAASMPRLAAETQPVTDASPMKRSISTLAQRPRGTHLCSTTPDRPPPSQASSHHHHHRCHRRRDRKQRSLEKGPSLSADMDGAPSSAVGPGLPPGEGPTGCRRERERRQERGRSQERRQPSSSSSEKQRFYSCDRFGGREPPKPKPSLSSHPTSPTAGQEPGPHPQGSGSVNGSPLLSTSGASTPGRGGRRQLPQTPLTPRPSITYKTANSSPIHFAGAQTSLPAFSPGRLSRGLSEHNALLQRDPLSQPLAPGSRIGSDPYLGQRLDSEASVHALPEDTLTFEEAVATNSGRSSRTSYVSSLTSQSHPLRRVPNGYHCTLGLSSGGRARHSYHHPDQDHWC
Chain of Voltage-gated N-type calcium channel alpha-1B subunit/Amyloid beta A4 precursor protein-binding family A member 1 (Q02410 whole entry): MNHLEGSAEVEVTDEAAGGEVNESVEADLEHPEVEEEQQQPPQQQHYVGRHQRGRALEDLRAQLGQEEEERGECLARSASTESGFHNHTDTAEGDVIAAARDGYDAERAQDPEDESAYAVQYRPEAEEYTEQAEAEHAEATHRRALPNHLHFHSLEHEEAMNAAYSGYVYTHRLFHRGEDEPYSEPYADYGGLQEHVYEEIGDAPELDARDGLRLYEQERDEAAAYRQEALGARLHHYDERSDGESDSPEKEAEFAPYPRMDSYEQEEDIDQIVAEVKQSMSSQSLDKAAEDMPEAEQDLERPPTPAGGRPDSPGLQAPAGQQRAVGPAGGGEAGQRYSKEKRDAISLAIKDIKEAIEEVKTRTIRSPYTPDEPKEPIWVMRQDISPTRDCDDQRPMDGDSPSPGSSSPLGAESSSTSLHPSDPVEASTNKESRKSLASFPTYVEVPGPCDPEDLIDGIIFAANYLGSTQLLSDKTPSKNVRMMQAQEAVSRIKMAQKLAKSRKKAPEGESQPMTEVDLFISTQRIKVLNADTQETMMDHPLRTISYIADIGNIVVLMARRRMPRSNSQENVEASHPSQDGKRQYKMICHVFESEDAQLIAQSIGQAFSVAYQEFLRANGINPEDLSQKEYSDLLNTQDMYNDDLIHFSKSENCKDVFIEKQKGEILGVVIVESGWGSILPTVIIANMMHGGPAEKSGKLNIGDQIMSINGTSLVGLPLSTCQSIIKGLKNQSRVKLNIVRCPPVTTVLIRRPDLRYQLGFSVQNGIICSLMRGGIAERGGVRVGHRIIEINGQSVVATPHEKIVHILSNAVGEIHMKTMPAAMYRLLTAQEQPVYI

SMILES: COc1ccc(/C=C2\SC(=S)N(CCC(=O)Nc3ccc(C(=O)O)cc3)C2=O)cc1OC
- IC50 [1]: 7.89 µM (active)
- IC50 [2]: 0.312 µM (active)

SMILES: COc1ccc(Nc2ccc3c(c2)=NC2(CCCCC2)[N+]=3[O-])cc1
- EC50 (H4): 79.5 µM (active)
- EC50 [3]: 9.19 µM (active)
